Experiments:
Format in all cases: biochemical
MMP-9 = target: T1, MMP-9 (Homo sapiens, UniProt P14780); assay: Automated MMP Profiling Assay, MMP-9 fluorogenic; conditions: for IC50: 96-well automated, P218
T1 construct: from tissue; host or cells: human polymorphonuclear leukocytes (PMN) from whole blood (New York Blood Center), PMA-stimulated supernatant
Experimental: Briefly, polymorphonuclear leukocytes (PMN) preparations were isolated as described above from 3 or more units of freshly drawn whole blood obtained from the New York Blood Center (New York, N.Y.). Cells were resuspended in phosphate buffered saline (PBS) containing 100 ng/ml phorbol myristate acetate (PMA) in the presence of 50 mM diisopropylfluorophospate (DFP), 1 μg/ml leupeptin and aprotinin, and 1 mg/ml catalase for 1 hr at 37° C. Supernatants were collected by centrifugation (300×g) and the samples were frozen at -70° C. All chromatographic methods were performed at 4° C. Thawed samples were concentrated 5-fold using an Amicon chamber equipped with a YM-10 membrane. The concentrate was pressure dialyzed against 0.02M Tris-HCl, 0.1M NaCl, 1 mM CaCl2, 1 μM ZnCl2, 0.001% Brij-35, 0.02% sodium azide (NaN3), pH 7.5 and applied to DEAE ion exchange chromatography resin which was previously equilibrated with the same buffer at a flow rate of 0.4 ml/min. The column was extensively washed with the same buffer and gelatinase was eluted as 4 ml fractions from the column with 0.02M Tris-HCl, 0.5M NaCl, 1 mM CaCl2, 1 μM ZnCl2, 0.001% Brij-35, 0.02% NaN3, pH 7.5. Gelatinase containing fractions were observed by gelatin zymography (see below), loaded onto a gelatin agarose affinity resin and washed with the same buffer. Gelatinase activity was eluted at a flow rate of 1 ml/min from the column as 1 ml fractions with 0.02M Tris-HCl, 1M NaCl, 1 mM CaCl2, 1 μM ZnCl2, 0.001% Brij-35, 0.02% NaN3, pH 7.5 containing 10% dimethyl sulfoxide (DMSO). The fractions containing gelatinase activity were pooled and dialyzed against 0.005M Tris-HCl, 5 mM NaCl, 0.5 mM CaCl2, 0.1 μM ZnCl2, 0.001% Brij-35, pH 7.4. The protein content associated with material was determined with a micro-BCA assay (Pierce, Rockford, Ill.), lyophilized and reconstituted to a desired working concentration (100 μg/ml).
This assay was run with a protocol analogous to that reported for MMP-3 inhibition using the synthetic peptide P218 and each of the three enzymes and measuring quenched fluorescence. This assay with each invention compound was run with the three enzymes MMP-3, MMP-9 and MMP-2 in parallel as adapted for a 96-well microtitre plate using a Hamilton A® workstation.

MMP-2 = target: T2, MMP-2 (Homo sapiens, UniProt P08253); assay: Automated MMP Profiling Assay, MMP-2 fluorogenic; conditions: 96-well automated, P218; read-out: MMP-2 Fluorogenic IC50 (profiling)
T2 sequence (P08253 110-660): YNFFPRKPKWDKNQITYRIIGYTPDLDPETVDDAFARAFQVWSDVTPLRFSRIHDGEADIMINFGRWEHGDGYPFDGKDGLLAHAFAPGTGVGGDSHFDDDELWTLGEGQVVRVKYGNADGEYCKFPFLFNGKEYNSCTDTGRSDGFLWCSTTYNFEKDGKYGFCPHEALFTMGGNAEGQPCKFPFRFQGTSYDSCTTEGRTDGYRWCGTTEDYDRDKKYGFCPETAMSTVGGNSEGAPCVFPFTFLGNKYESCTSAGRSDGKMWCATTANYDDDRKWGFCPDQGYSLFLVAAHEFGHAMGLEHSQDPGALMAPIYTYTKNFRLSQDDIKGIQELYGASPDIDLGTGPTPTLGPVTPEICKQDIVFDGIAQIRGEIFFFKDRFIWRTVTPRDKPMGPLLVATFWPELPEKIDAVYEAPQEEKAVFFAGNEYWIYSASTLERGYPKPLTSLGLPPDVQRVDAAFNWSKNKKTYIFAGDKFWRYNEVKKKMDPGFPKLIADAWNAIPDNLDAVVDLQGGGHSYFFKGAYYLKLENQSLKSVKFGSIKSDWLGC

MMP-3 = target: T3, MMP-3 (Homo sapiens, UniProt P08254); assay: Automated MMP Profiling Assay, MMP-3 fluorogenic; conditions: 96-well automated, P218
T3 construct: Truncated Prostromelysin-257 was expressed in a soluble form in E.coli; made in house; host or cells: E. coli
T3 sequence (P08254 100-274 limits assumed): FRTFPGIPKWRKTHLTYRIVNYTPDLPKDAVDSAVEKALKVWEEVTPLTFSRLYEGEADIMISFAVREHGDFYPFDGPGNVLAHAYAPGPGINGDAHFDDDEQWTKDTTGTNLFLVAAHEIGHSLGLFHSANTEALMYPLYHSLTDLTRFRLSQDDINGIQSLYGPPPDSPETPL
Description: This assay with each invention compound was run with the three enzymes MMP-3, MMP-9 and MMP-2 in parallel as adapted for a 96-well microtitre plate using a Hamilton A® workstation.

T1 sequence (P14780 107-707 limits assumed): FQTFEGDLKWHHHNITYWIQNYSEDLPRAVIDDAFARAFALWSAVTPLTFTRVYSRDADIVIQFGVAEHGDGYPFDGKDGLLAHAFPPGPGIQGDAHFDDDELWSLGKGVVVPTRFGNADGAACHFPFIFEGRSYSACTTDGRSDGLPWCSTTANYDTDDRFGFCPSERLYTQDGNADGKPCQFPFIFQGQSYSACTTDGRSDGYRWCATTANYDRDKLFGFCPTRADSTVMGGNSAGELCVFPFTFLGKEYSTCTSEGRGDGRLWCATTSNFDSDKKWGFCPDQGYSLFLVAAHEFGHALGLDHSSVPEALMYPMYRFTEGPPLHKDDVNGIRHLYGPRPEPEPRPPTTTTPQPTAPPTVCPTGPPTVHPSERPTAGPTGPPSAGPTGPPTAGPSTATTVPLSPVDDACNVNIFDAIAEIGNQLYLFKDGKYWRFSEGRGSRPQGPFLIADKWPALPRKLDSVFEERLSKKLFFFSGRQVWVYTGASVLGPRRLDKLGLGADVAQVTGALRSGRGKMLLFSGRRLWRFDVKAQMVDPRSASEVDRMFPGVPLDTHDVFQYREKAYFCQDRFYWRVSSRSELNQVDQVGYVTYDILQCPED

Q: For `Cc1ccc(/C=C/[C@@H]2CC[C@H](C(=O)c3ccc(-c4ccc(Cl)cc4)cc3)[C@H]2C(=O)O)cc1` (relative stereo) [Example 363, Cyclopentanecarboxylic acid, 2-[(4'-chloro[1,1'-biphenyl]-4-yl)carbonyl]-5-[2-(4-methylphenyl)ethenyl]-, [1α,2β,5β(E)]-], which inhibition at 5 µM (MMP-9; at 5 μM) is on record?
A: 37%

Q: What about the IC50 (MMP-2) of the same molecule?
A: < 5000 nM

Q: And the IC50 (MMP-3)?
A: 5000 nM

Q: How did the IC50 (MMP-9) turn out when `COCOC[C@@H]1CC[C@H](C(=O)c2ccc(-c3ccc(Cl)cc3)cc2)[C@H]1C(=O)O` (relative stereo) [Example 364] was run?
A: 180 nM

Q: And the IC50 (MMP-2)?
A: 40 nM

Q: And the IC50 (MMP-3)?
A: 46 nM

Q: How did the IC50 (MMP-9) turn out when `O=C(O)[C@H]1[C@H](COCc2ccccc2)CC[C@@H]1C(=O)c1ccc(-c2ccc(Cl)cc2)cc1` (relative stereo) [Example 365, Cyclopentanecarboxylic acid, 2-[(4'-chloro[1,1'-biphenyl]-4-yl)carbonyl]-5-[(phenylmethoxy)methyl]-, (1α,2β,5β)-] was run?
A: 58 nM

Q: And the IC50 (MMP-2)?
A: 13 nM

Q: And the IC50 (MMP-3)?
A: 27 nM

Q: For `O=C(O)[C@H]1[C@H](COc2ccccc2)CC[C@@H]1C(=O)c1ccc(-c2ccc(Cl)cc2)cc1` (relative stereo) [Example 366, Cyclopentanecarboxylic acid, 2-[(4'-chloro[1,1'-biphenyl]-4-yl)carbonyl]-5-(phenoxymethyl)-, (1α,2β,5β)-], which IC50 (MMP-9) is on record?
A: 56 nM

Q: And the IC50 (MMP-2)?
A: 6.7 nM

Q: What about the IC50 (MMP-3) of the same molecule?
A: 22 nM

Q: What does the source list for `O=C(OC[C@@H]1CC[C@H](C(=O)c2ccc(-c3ccc(Cl)cc3)cc2)[C@H]1C(=O)O)c1ccccc1` (relative stereo) [Example 367]?
A: IC50 (MMP-9): 38 nM; IC50 (MMP-2): 37 nM; IC50 (MMP-3): 44 nM

Q: `COC(=O)c1ccccc1C(=O)OC[C@@H]1CC[C@H](C(=O)c2ccc(-c3ccc(Cl)cc3)cc2)[C@H]1C(=O)O` (relative stereo) [Example 368] was tested. Which IC50 (MMP-9) did it give?
A: 30 nM

Q: And the IC50 (MMP-2)?
A: 31 nM

Q: And the IC50 (MMP-3)?
A: 36 nM

Q: How did the IC50 (MMP-9) turn out when `O=C(O)[C@H]1[C@H](CSc2cccs2)CC[C@@H]1C(=O)c1ccc(-c2ccc(Cl)cc2)cc1` (relative stereo) [Example 369, Cyclopentanecarboxylic acid, 2-[(4'-chloro[1,1'-biphenyl]-4-yl)carbonyl]-5-[(2-thienylthio)methyl]-, (1α,2β,5β)-] was run?
A: 139 nM

Q: What about the IC50 (MMP-2) of the same molecule?
A: 37 nM

Q: What about the IC50 (MMP-3) of the same molecule?
A: 54 nM

Q: What does the source list for `O=C(NC[C@@H]1CC[C@H](C(=O)c2ccc(-c3ccc(Cl)cc3)cc2)[C@H]1C(=O)O)c1ccccc1` (relative stereo) [Example 370, Cyclopentanecarboxylic acid, 2-[(benzoylamino)methyl]-[(4'-chloro[1,1'-biphenyl]-4-yl)carbonyl]-, (1α,2β,5β)-]?
A: IC50 (MMP-9): 26 nM; IC50 (MMP-2): 8.7 nM; IC50 (MMP-3): 24 nM

Q: For `COCCOCOC[C@@H]1CC[C@H](C(=O)c2ccc(-c3ccc(Cl)cc3)cc2)[C@H]1C(=O)O` (relative stereo) [Example 371, Cyclopentanecarboxylic acid, 2-[(4'-chloro[1,1'-biphenyl]-4-yl)carbonyl]-5-[[(2-methoxyethoxy)methoxy]methyl]-, (1α,2β,5β)-], which IC50 (MMP-9) is on record?
A: 26 nM

Q: And the IC50 (MMP-2)?
A: 9.1 nM

Q: And the IC50 (MMP-3)?
A: 10 nM

Q: Which results are given for `O=C(O)[C@H]1[C@H](CSCc2ccccc2)CC[C@@H]1C(=O)c1ccc(-c2ccc(Cl)cc2)cc1` (relative stereo) [Example 372, Cyclopentanecarboxylic acid, 2-[(4'-chloro[1,1'-biphenyl]-4-yl)carbonyl]-5-[[(phenylmethyl)thio]methyl]-, (1α,2β,5β)-]?
A: IC50 (MMP-9): 65 nM; IC50 (MMP-2): 22 nM; IC50 (MMP-3): 39 nM

Q: With `O=C(O)[C@H]1[C@H](CSc2ccccc2)CC[C@@H]1C(=O)c1ccc(-c2ccc(Cl)cc2)cc1` (relative stereo) [Example 373, Cyclopentanecarboxylic acid, 2-[(4'-chloro[1,1'-biphenyl]-4-yl)carbonyl]-5-[(phenylthio)methyl]-, (1α,2β,5β)-] as the molecule, how does the IC50 (MMP-9) read?
A: 113 nM

Q: And the IC50 (MMP-2)?
A: 24 nM

Q: What about the IC50 (MMP-3) of the same molecule?
A: 56 nM

Q: `CCCSC[C@@H]1CC[C@H](C(=O)c2ccc(-c3ccc(Cl)cc3)cc2)[C@H]1C(=O)O` (relative stereo) [Example 374, Cyclopentanecarboxylic acid, 2-[(4'-chloro[1,1'-biphenyl]-4-yl)carbonyl]-5-[(propylthio)methyl]-, (1α,2β,5β)-] was tested. Which IC50 (MMP-9) did it give?
A: 271 nM

Q: And the IC50 (MMP-2)?
A: 34 nM

Q: What about the IC50 (MMP-3) of the same molecule?
A: 54 nM

Q: With `O=C(O)[C@H]1[C@H](CSc2nc3ccccc3s2)CC[C@@H]1C(=O)c1ccc(-c2ccc(Cl)cc2)cc1` (relative stereo) [Example 375, Cyclopentanecarboxylic acid, 2-[(2-benzothiazolylthio)methyl]-5-[(4'-chloro[1,1'-biphenyl]-4-yl)carbonyl]-, (1α,2β,5β)-] as the molecule, how does the IC50 (MMP-9) read?
A: 146 nM

Q: What about the IC50 (MMP-2) of the same molecule?
A: 68 nM

Q: And the IC50 (MMP-3)?
A: 116 nM

Q: Which results are given for `COC(=O)c1ccccc1SC[C@@H]1CC[C@H](C(=O)c2ccc(-c3ccc(Cl)cc3)cc2)[C@H]1C(=O)O` (relative stereo) [Example 376, Benzoic acid, 2-[[[2-carboxy-3-[(4'-chloro[1,1'-biphenyl]-4-yl)carbonyl]cyclopentyl]methyl]thio]-, 1-methyl ester, (1α,2β,3α)0]?
A: IC50 (MMP-9): 95 nM; IC50 (MMP-2): 34 nM; IC50 (MMP-3): 46 nM

Q: For `O=C(NC[C@@H]1CC[C@H](C(=O)c2ccc(-c3ccc(Cl)cc3)cc2)[C@H]1C(=O)O)OCc1ccccc1` (relative stereo) [Example 377], which IC50 (MMP-9) is on record?
A: 44 nM

Q: What about the IC50 (MMP-2) of the same molecule?
A: 28 nM

Q: What about the IC50 (MMP-3) of the same molecule?
A: 24 nM

Q: How did the IC50 (MMP-9) turn out when `Cc1ccccc1C(=O)OC[C@@H]1CC[C@H](C(=O)c2ccc(-c3ccc(Cl)cc3)cc2)[C@H]1C(=O)O` (relative stereo) [Example 378, Benzoic acid, 2-methyl-, [2-carboxy-3-[(4'-chloro[1,1'-biphenyl]-4-yl)carbonyl]cyclopentyl]methyl ester, (1α,2β,3α)-] was run?
A: 83 nM

Q: And the IC50 (MMP-2)?
A: 43 nM

Q: And the IC50 (MMP-3)?
A: 77 nM

Q: `Cc1cccc(C(=O)OC[C@@H]2CC[C@H](C(=O)c3ccc(-c4ccc(Cl)cc4)cc3)[C@H]2C(=O)O)c1` (relative stereo) [Example 379, Benzoic acid, 3-methyl-, [2-carboxy-3-[(4'-chloro[1,1'-biphenyl]-4-yl)carbonyl]cyclopentyl]methyl ester, (1α,2β,3α)-] was tested. Which IC50 (MMP-9) did it give?
A: 48 nM

Q: And the IC50 (MMP-2)?
A: 92 nM

Q: What about the IC50 (MMP-3) of the same molecule?
A: 63 nM

Q: Which results are given for `Cc1ccc(C(=O)OC[C@@H]2CC[C@H](C(=O)c3ccc(-c4ccc(Cl)cc4)cc3)[C@H]2C(=O)O)cc1` (relative stereo) [Example 380, Benzoic acid, 4-methyl-, [2-carboxy-3-[(4'-chloro[1,1'-biphenyl]-4-yl)carbonyl]cyclopentyl]methyl ester, (1α,2β,3α)-]?
A: IC50 (MMP-9): 40 nM; IC50 (MMP-2): 69 nM; IC50 (MMP-3): 46 nM

Q: With `COc1ccccc1C(=O)OC[C@@H]1CC[C@H](C(=O)c2ccc(-c3ccc(Cl)cc3)cc2)[C@H]1C(=O)O` (relative stereo) [Example 381, Benzoic acid, 2-methoxy-, [2-carboxy-3-[(4'-chloro[1,1'-biphenyl]-4-yl)carbonyl]cyclopentyl]methyl ester, (1α,2β,3α)-] as the molecule, how does the IC50 (MMP-9) read?
A: 97 nM

Q: And the IC50 (MMP-2)?
A: 44 nM

Q: And the IC50 (MMP-3)?
A: 46 nM

Q: How did the IC50 (MMP-9) turn out when `COc1cccc(C(=O)OC[C@@H]2CC[C@H](C(=O)c3ccc(-c4ccc(Cl)cc4)cc3)[C@H]2C(=O)O)c1` (relative stereo) [Example 382, Benzoic acid, 3-methoxy-, [2-carboxy-3-[(4'-chloro[1,1'-biphenyl]-4-yl)carbonyl]cyclopentyl]methyl ester, (1α,2β,3α)-] was run?
A: 39 nM

Q: And the IC50 (MMP-2)?
A: 64 nM

Q: What about the IC50 (MMP-3) of the same molecule?
A: 42 nM

Reference: US5789434A, “Derivatives of substituted 4-biarylbutyric acid as matrix metalloprotease inhibitors” (priority 1995, dated 1998)
